In patent US20140065212A1, “COATED PHARMACEUTICAL COMPOSITION CONTAINING REGORAFENIB” (Bayer Healthcare LLC, priority 2012, published 2014) one finds solubility data, which are given here for one compound.

This series can be described thus: thermodynamic solubility of regorafenib monohydrate in different solvents. The series is classed as physicochemical. The following applies: thermodynamic from solid. From the text: Furthermore salts of the compound of formula (I) such as its hydrochloride, mesylate and phenylsulfonate are mentioned in WO 2005/009961. The monohydrate of the compound of formula (I) is mentioned in WO 2008/043446. An improved process for the manufacturing of regorafenib in high purity is described in WO 2011/128261. Due to the limited solubility of regorafenib monohydrate (see table 1) an applicable pharmaceutical composition containing regorafenib is in form of a solid dispersion as described in WO 2006/026500.

Molecules are shown by their SMILES.

The term solubility denotes how much of the substance goes into solution per volume. Consider `CNC(=O)c1cc(Oc2ccc(NC(=O)Nc3ccc(Cl)c(C(F)(F)F)c3)c(F)c2)ccn1` [regorafenib monohydrate], for which the solubility was under 100 µg/mL (aqueous with cosolvent or surfactant or cyclodextrin, solvent: HPβ-Cyclodextrin/water (10:90)); 270 µg/mL (aqueous with cosolvent or surfactant or cyclodextrin, solvent: PEG 400/water (30:70)); under 100 µg/mL (light liquid paraffin, oil or lipid, solvent: Ligth liquid paraffin); 3600 µg/mL (oil or lipid, solvent: Oleoylpolyethylenglycol glycerides); 6400 µg/mL (organic solvent or mixture, solvent: Ethanol); 67300 µg/mL (organic solvent or mixture, solvent: Polyethylenglycol (PEG) 400). For the setting “solvent: Water”, the solubility was under 100 µg/mL.
